This is an account of results in patent US11008314B2, “Compounds and methods for modulating interleukin-2-inducible t-cell kinase” (CORVUS PHARMACEUTICALS, INC., priority 2016, dated 2021).

Holding throughout (assay type): biochemical
In one experiment the target is TXK (Homo sapiens (Human), UniProt P42681). Briefly: IC50 against TXK. As to conditions: for TXK/ITK: ratio of TXK IC50 to ITK IC50.
The next experiment deals with JAK3 (Homo sapiens (Human), UniProt P52333). The experiment in a line: IC50 against JAK3.
In another experiment the target is BTK (Homo sapiens (Human), UniProt Q06187). The experiment in a line: IC50 against BTK.
For another experiment, the target named is ITK (Homo sapiens (Human), UniProt Q08881). Briefly: IC50 against ITK.
ITK, sequence (Q08881 whole entry): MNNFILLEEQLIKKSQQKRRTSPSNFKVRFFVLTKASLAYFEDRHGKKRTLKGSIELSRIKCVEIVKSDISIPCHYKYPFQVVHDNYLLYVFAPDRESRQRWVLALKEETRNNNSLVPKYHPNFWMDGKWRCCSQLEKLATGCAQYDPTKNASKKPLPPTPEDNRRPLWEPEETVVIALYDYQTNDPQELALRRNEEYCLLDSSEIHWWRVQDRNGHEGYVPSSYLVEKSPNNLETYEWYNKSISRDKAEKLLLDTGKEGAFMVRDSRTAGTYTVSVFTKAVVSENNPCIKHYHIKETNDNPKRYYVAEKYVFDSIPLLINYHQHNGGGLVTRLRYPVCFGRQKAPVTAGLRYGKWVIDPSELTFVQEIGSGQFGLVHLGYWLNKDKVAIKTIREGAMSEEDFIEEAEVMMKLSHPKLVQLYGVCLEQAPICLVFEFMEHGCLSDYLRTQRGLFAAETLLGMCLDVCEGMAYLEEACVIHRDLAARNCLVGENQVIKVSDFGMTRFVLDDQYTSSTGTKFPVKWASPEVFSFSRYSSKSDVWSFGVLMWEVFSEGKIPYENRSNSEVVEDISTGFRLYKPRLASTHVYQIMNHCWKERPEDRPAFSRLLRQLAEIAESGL

JAK3, sequence (P52333 whole entry, species assumed): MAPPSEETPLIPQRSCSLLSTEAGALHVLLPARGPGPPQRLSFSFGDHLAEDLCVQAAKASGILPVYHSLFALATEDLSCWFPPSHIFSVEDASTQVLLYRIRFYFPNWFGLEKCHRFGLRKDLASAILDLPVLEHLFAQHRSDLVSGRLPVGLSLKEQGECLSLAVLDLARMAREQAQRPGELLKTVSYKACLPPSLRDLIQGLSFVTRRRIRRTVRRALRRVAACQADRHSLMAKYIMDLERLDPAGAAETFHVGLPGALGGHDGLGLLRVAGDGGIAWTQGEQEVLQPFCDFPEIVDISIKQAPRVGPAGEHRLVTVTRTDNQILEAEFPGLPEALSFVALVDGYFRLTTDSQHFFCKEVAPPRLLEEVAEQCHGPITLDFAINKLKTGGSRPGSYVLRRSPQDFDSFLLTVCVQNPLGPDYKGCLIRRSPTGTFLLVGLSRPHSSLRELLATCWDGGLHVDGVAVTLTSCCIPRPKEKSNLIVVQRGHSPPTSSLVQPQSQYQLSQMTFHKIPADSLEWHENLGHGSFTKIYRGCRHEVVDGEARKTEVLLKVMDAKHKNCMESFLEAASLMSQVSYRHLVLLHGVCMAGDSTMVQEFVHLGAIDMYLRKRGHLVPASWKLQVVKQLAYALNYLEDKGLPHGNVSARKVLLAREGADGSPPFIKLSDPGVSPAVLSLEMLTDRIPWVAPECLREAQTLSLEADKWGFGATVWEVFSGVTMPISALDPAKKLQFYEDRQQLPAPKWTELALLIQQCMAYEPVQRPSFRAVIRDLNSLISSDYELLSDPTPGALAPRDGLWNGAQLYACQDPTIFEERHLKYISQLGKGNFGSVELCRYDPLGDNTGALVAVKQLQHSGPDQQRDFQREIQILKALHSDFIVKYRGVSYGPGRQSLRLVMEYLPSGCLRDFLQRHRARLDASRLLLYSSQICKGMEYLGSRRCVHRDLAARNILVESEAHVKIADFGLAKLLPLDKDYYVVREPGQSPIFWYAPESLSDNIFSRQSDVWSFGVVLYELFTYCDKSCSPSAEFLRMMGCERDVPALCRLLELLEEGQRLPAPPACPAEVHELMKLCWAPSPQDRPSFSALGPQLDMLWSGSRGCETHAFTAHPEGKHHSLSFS
TXK, sequence (P42681 whole entry, species assumed): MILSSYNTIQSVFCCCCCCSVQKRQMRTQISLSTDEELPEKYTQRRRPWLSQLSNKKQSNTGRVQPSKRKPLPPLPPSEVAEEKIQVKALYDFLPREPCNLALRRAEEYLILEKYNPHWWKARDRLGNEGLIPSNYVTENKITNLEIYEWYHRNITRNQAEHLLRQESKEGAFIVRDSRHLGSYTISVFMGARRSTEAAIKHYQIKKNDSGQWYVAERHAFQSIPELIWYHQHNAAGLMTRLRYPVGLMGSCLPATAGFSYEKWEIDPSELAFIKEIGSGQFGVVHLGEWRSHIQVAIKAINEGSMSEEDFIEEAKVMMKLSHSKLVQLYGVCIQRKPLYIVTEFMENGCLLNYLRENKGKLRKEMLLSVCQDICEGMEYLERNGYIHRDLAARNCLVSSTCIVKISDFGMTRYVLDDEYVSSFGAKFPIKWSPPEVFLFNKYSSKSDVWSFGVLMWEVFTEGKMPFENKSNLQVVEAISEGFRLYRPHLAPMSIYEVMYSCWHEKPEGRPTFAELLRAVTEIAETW
BTK, sequence (Q06187 whole entry, species assumed): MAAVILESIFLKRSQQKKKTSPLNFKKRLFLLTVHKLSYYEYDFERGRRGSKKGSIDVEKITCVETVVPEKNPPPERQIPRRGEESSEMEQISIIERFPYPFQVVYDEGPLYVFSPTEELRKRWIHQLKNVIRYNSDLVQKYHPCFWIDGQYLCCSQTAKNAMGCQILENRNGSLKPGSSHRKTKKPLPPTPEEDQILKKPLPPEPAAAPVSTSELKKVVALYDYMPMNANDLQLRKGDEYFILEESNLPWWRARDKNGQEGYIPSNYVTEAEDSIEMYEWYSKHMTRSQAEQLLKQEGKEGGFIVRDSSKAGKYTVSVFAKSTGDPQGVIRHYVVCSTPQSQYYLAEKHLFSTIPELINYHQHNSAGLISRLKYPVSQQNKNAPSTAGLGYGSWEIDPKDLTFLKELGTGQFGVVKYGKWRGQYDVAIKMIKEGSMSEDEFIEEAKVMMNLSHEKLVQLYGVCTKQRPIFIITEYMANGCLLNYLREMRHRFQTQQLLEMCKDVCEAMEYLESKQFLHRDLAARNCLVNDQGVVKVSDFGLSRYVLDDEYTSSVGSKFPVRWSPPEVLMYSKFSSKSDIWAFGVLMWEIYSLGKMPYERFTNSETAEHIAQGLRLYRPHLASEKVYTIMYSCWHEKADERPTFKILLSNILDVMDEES

As to `C=CC(=O)N1CCN(C(=O)c2cc(Sc3cnc(NC(=O)c4ccsc4)s3)c(C)cc2C)CC1` [Compound 109], the IC50 at TXK was 10 to 100 nM; at JAK3 it was 10 to 100 nM; against BTK, 10 to 100 nM; on ITK, under 10 nM. Besides, the TXK/ITK on TXK was found to be 13.5.
In the case of `C=CC(=O)N1CCN(C(=O)c2cc(Sc3cnc(Nc4ncc(C)cc4C)s3)c(C)cc2C)CC1` [Compound 138], the concentration for half-maximal inhibition (IC50) against TXK is 10 to 100 nM; against JAK3 it was 100 to 1000 nM; against BTK, 100 to 1000 nM; against ITK, 10 to 100 nM. The TXK/ITK on TXK came to 3.29.
Regarding `C=CC(=O)N1CCCN(C(=O)c2cc(Sc3cnc(NC(C)=O)s3)c(C)cc2OC)CC1` [Compound 26], the IC50 on TXK lay within 100 to 1000 nM; against JAK3, 1000 to 10000 nM; against BTK, 1000 to 10000 nM; against ITK, 10 to 100 nM. On TXK, the TXK/ITK worked out at 26.486.
Consider `C=CC(=O)N1CCN(C(=O)c2cc(C(C)c3cnc(NC(=O)C4CC4)s3)c(C)cc2OC)CC1` (stereo not drawn) [Compound 140], for which the IC50 against TXK was 10 to 100 nM; on JAK3, 1000 to 10000 nM; against BTK, 10 to 100 nM; at ITK, under 10 nM. The TXK/ITK at TXK was found to be 2.66.
Regarding `C=CC(=O)N1CCCN(C(=O)c2cc(Sc3cnc(NC(=O)CN(C)C)s3)c(C)cc2OC)CC1` [Compound 35], the 50% inhibitory concentration (IC50) against TXK is at least 10000 nM; at JAK3, at least 10000 nM; against BTK, at least 10000 nM; against ITK it was 100 to 1000 nM. The TXK/ITK on TXK was found to be 48.433.
For the compound `C=CC(=O)N1CCCN(C(=O)c2cc(Sc3cnc(Nc4ccccn4)s3)c(C)cc2OC)C[C@H]1C(C)C` [Compound 147, (R)-l-(2-isopropyl-4-(2-methoxy-4-methyl-5-((2-(pyridin-2-ylamino)thiazol-5-yl)thio)benzoyl)-1,4-diazepan-1-yl)prop-2-en-1-one], the concentration for half-maximal inhibition (IC50) against TXK is 100 to 1000 nM; at JAK3, 1000 to 10000 nM; against BTK, 10 to 100 nM; against ITK, under 10 nM. Besides, the TXK/ITK at TXK is on record as 29.58.
As to `C=CC(=O)N1CCN(C(=O)c2cc(Sc3cnc(NC(=O)c4cccc(CN(C)C)c4)s3)c(C)cc2OC)C[C@H]1C` [Compound 32], the IC50 on TXK was 100 to 1000 nM; against JAK3 it was 1000 to 10000 nM; at BTK it was 100 to 1000 nM; against ITK it was under 10 nM. On TXK, the TXK/ITK was found to be 81.114.
Consider `C=CC(=O)N1CCN(C(=O)c2cc(Sc3cnc(NC(C)=O)s3)c(C)cc2OC)C[C@@H]1C` [Compound 12], for which the IC50 fell in the range of 100 to 1000 nM against TXK, 100 to 1000 nM against JAK3, 100 to 1000 nM on BTK and 10 to 100 nM on ITK. On TXK, the TXK/ITK worked out at 14.784.
In the case of `C=CC(=O)N1CCN(C(=O)c2cccc(Cc3cnc(NC(=O)C4CC4)s3)c2)CC1` [Compound 4], the IC50 against TXK lay within 10 to 100 nM; against JAK3, 100 to 1000 nM; against BTK, 100 to 1000 nM; against ITK it was 10 to 100 nM. Further, on TXK, the TXK/ITK was found to be 0.3296.
Consider `C=CC(=O)N1CCN(C(=O)c2cc(Sc3cnc(NC(=O)CC)s3)c(C)cc2OC)[C@@H](C)C1` [Compound 51], for which the half-maximal inhibitory concentration (IC50) is 10 to 100 nM at TXK, 1000 to 10000 nM against JAK3, 100 to 1000 nM on BTK and under 10 nM against ITK. For the same compound, the TXK/ITK at TXK came to 14.645.
Turning to `C=CC(=O)N1CCCN(C(=O)c2cc(Sc3cnc(NC(=O)C4CC4)s3)cc(C)c2C)C[C@H]1C` [Compound 63], the concentration for half-maximal inhibition (IC50) against TXK was 1000 to 10000 nM; against JAK3 it was at least 10000 nM; on BTK, at least 10000 nM; against ITK, 100 to 1000 nM. Also, the TXK/ITK at TXK was found to be 61.086.
For the compound `C=CC(=O)N1CCN(C(=O)c2cc(Sc3cnc(NC(C)=O)s3)c(C)cc2OC)[C@H](C)C1` [Compound 10], the 50% inhibitory concentration (IC50) at TXK lay within 100 to 1000 nM; against JAK3, 1000 to 10000 nM; at BTK, 100 to 1000 nM; against ITK, 10 to 100 nM. At TXK, the TXK/ITK is reported as 8.0758.
Take `C=CC(=O)N1[C@@H]2CC[C@H]1CN(C(=O)c1cc(Sc3cnc(Nc4ccccn4)s3)c(C)cc1OC)C2` [Compound 150, 1-((1R, 5S)-3-(2-methoxy-4-methyl-5-((2-(pyridin-2-ylamino)thiazol-5-yl)thio)benzoyl)-3,8-diazabicyclo[3.2.1]octan-8-yl)prop-2-en-1-one]: the IC50 on TXK is under 10 nM; against JAK3 it was 10 to 100 nM; at BTK, under 10 nM; against ITK, under 10 nM. For the same compound, the TXK/ITK at TXK amounted to 1.76.
For `C=CC(=O)N1CCN(C(=O)c2cc(Sc3cnc(NC(=O)C4CCC4)s3)c(C)cc2OC)CC1` [Compound 84], the concentration for half-maximal inhibition (IC50) on TXK was 10 to 100 nM; on JAK3, 1000 to 10000 nM; at BTK it was 1000 to 10000 nM; against ITK, under 10 nM. Moreover, the TXK/ITK at TXK is 21.948.
With `C=C(CN(C)C)C(=O)N1CCN(C(=O)c2cc(Sc3cnc(NC(=O)C4CC4)s3)c(C)cc2OC)CC1` [Compound 13], the 50% inhibitory concentration (IC50) lay within 100 to 1000 nM against TXK, 1000 to 10000 nM at JAK3, 1000 to 10000 nM against BTK and 10 to 100 nM on ITK. The TXK/ITK at TXK is given as 22.987.
Take `CC#CC(=O)N1CCCN(C(=O)c2cc(Sc3cnc(NC(=O)c4cccc(CN(C)C)c4)s3)c(C)cc2OC)CC1` [Compound 38]: the IC50 against TXK was 1000 to 10000 nM; on JAK3, at least 10000 nM; on BTK, 1000 to 10000 nM; at ITK, 10 to 100 nM. For the same compound, on TXK, the TXK/ITK is listed as 28.189.
Consider `C=CC(=O)N1CCN(C(=O)c2cc(Sc3cnc(Nc4ccccn4)s3)c(Cl)cc2C)CC1` [Compound 126], for which the half-maximal inhibitory concentration (IC50) against TXK is 10 to 100 nM; against JAK3, 10 to 100 nM; at BTK it was 10 to 100 nM; against ITK, under 10 nM. The TXK/ITK at TXK turned out to be 13.5.
In the case of `C=CC(=O)N1CCN(C(=O)c2cc(Sc3cnc(NC(=O)C4CC4)s3)c(C)cc2Cl)C[C@H]1CC` [Compound 99], the half-inhibitory concentration (IC50) against TXK lay within 10 to 100 nM; against JAK3, 100 to 1000 nM; against BTK it was 1000 to 10000 nM; against ITK it was 10 to 100 nM. For the same compound, the TXK/ITK at TXK amounted to 4.279.
For the compound `C=CC(=O)N1CC[C@H](N(C)C(=O)c2cc(Sc3cnc(NC(C)=O)s3)c(C)cc2OC)C1` [Compound 30], the IC50 against TXK is 10 to 100 nM; at JAK3 it was 1000 to 10000 nM; against BTK it was 100 to 1000 nM; against ITK, 10 to 100 nM. At TXK, the TXK/ITK came to 3.101.
As to `C=CC(=O)N1C[C@@H]2C[C@H]1CN2C(=O)c1cc(Sc2cnc(NC(=O)C3CC3)s2)c(C)cc1OC` [Compound 23], the IC50 is under 10 nM against TXK, 10 to 100 nM against JAK3, under 10 nM at BTK and under 10 nM on ITK. On TXK, the TXK/ITK is 1.4139.
On to `C=CC(=O)N1CCN(C(=O)c2cc(Sc3cnc(NC(C)=O)s3)c(C)cc2OC)C[C@H]1C` [Compound 11], for which the 50% inhibitory concentration (IC50) against TXK was 100 to 1000 nM; at JAK3, 1000 to 10000 nM; at BTK, 1000 to 10000 nM; at ITK, under 10 nM. On TXK, the TXK/ITK was 25.051.
With `C=CC(=O)N1CCN(C(=O)c2cc(Sc3cnc(NC(=O)C4CC4)s3)c(C)cc2OC)[C@H](C)C1` [Compound 20], the IC50 against TXK is 10 to 100 nM; at JAK3, 100 to 1000 nM; against BTK it was 100 to 1000 nM; on ITK, under 10 nM. Further, at TXK, the TXK/ITK was 2.2433.
Consider `C=CC(=O)N1CCN(C(=O)c2cc(Sc3cnc(NC(=O)c4ccsc4)s3)c(C)cc2C)C[C@H]1CC` [Compound 130], for which the IC50 on TXK is 10 to 100 nM; against JAK3, 100 to 1000 nM; against BTK, 100 to 1000 nM; at ITK it was under 10 nM. The TXK/ITK on TXK is reported as 7.0.
For the compound `C=CC(=O)N1CCCN(C(=O)c2cc(Sc3cnc(NC(=O)C(C)C)s3)c(C)cc2OC)CC1` [Compound 36], the IC50 against TXK is 1000 to 10000 nM; on JAK3, at least 10000 nM; on BTK, 1000 to 10000 nM; at ITK, 10 to 100 nM. Also, at TXK, the TXK/ITK turned out to be 72.34.
With `C=C(CN(C)C)C(=O)N1CCCN(C(=O)c2cc(Sc3cnc(NC(=O)C4CC4)s3)c(C)cc2OC)C[C@H]1C` [Compound 88], the IC50 is at least 10000 nM at TXK, at least 10000 nM against JAK3, at least 10000 nM at BTK and 100 to 1000 nM on ITK. The TXK/ITK on TXK amounted to 30.436.
For `C=CC(=O)N1CCN(C(=O)c2cc(Sc3cnc(NC(=O)c4ccsc4)s3)c(C)cc2OC)CC1(C)C` [Compound 141, N-(5-((5-(4-acryloyl-3,3-dimethylpiperazine-1-carbonyl)-4-methoxy-2-methylphenyl)thio)thiazol-2-yl)thiophene-3-carboxamide], the IC50 against TXK is 10 to 100 nM; against JAK3, 100 to 1000 nM; against BTK, 10 to 100 nM; at ITK, under 10 nM. Besides, at TXK, the TXK/ITK is 14.70.
As to `C=CC(=O)N1CCCN(C(=O)c2cc(Sc3cnc(NC(=O)C4CC4)s3)c(C)cc2OC)CC1` [Compound 25], the IC50 was 10 to 100 nM on TXK, 100 to 1000 nM against JAK3, 100 to 1000 nM on BTK and under 10 nM against ITK. Also, on TXK, the TXK/ITK is on record as 20.879.
With `C=CC(=O)N1CCN(C(=O)c2cc(Sc3cnc(NC(=O)c4cnn(C)c4)s3)c(C)cc2OC)C[C@H]1CC` [Compound 115], the IC50 was 10 to 100 nM against TXK, 1000 to 10000 nM against JAK3, 100 to 1000 nM against BTK and under 10 nM against ITK. Besides, the TXK/ITK on TXK is 9.8.
For `C=CC(=O)N1CCCN(C(=O)c2cc(Cc3cnc(NC(=O)C4CC4)s3)c(C)cc2OC)C[C@H]1C` [Compound 128], in that order: 100 to 1000 nM, at least 10000 nM, 100 to 1000 nM, 10 to 100 nM and 12.8.
For `C=CC(=O)N1CCN(C(=O)c2cc(Sc3cnc(NC(=O)C4CC4)s3)ccc2OC)C[C@H]1C` [Compound 79], in that order: 100 to 1000 nM, 100 to 1000 nM, at least 10000 nM, 10 to 100 nM and 21.331.

As a reminder, the IC50 is the concentration that inhibits the measured activity by half.
